Laboratory results as given in publication PMC10163259, “KK-LC-1 as a therapeutic target to eliminate ALDH^+ stem cells in triple negative breast cancer” (Nature Communications, 2023).
pKd: −log10 of the molar value.

Target: T1, KK-LC-1 (Homo sapiens, UniProt Q5H943)
T1 construct: gene CT83; purified KK-LC-1 protein, biotinylated, immobilised on Super Streptavidin sensors
T1 sequence (Q5H943 1-113): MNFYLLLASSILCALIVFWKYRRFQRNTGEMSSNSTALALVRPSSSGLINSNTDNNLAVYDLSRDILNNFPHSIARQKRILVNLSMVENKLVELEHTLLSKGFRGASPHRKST
Experiment: biolayer interferometry (Octet K2)
Format: binding
Conditions: 30 °C; PBS with 0.1% BSA, 0.01% Tween-20, 1% DMSO; biotinylated KK-LC-1 immobilised; from kon/koff

For `Cc1ccc(CNC(=O)c2nnc(CN(C)C3CCc4ccccc43)s2)cc1` (stereo not shown) [Z8, Z839878730], the pKd was 5.37.
